Source: patent publication US20030073850A1, “4-Imidazole derivatives of benzyl and restricted benzyl sulfonamides, sulfamides, ureas, carbamates, and amides and their use” (priority 1998, published 2003)
Where a name gives a salt, the structure may show the parent alone.

Biological target: T1, α1b (hamster receptor expressed in mouse fibroblasts) (Mesocricetus auratus, UniProt P18841)
T1 construct: expressed in transfected cells; host or cells: mouse fibroblasts
T1 sequence (P18841 1-515): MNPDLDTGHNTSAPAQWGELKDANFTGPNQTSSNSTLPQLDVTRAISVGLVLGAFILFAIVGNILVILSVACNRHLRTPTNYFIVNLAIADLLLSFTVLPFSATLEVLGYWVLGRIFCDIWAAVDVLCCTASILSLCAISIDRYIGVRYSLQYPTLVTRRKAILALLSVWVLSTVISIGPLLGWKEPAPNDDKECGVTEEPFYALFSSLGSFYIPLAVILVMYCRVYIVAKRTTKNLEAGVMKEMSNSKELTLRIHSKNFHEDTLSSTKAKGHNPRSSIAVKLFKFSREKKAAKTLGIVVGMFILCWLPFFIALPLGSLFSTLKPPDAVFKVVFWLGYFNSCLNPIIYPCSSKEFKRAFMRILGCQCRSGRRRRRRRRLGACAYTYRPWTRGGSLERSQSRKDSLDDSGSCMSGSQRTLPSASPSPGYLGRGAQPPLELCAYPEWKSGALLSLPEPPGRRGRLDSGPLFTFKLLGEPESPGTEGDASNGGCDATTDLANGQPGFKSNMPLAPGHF
Experiment: Radioligand binding, [3H]-prazosin, α1b
Conditions: hamster receptor expressed in mouse fibroblasts, [3H]-prazosin; read-out: Radioligand Binding Ki α1b (Hamster)
Procedure: For purposes of discussing a, adrenoceptor subtypes, the IUPHAR convention of using lower case letters to define molecular clones and upper case letters to indicate pharmacologically defined adrenoceptors has been followed. Compounds of formula I were evaluated in radioligand binding assays specific for α1A (rat submaxillary gland), α1b (hamster receptor expressed in mouse fibroblasts) and α1d (rat receptor expressed in mouse fibroblasts) using [^3H]-prazosin as the radioligand as described in Knepper, et al. J. Pharm.

Compound | Ki
O=S(=O)(Nc1cccc2c1CCCC2c1c[nH]cn1)C1CC1 (centres unmarked) [Example 27, N-[5,6,7,8-tetrahydro-(1H-imidazol-4-yl)-1-naphthalenyl]cyclopropanesulfonamide, Maleate] | 10 µM
CS(=O)(=O)Nc1cccc2c1CCCCC2c1c[nH]cn1.O=C(O)/C=C\C(=O)O (centres unmarked) [Example 38, N-[5-(1H-imidazol-4-yl)-6,7,8,9-tetrahydro-5H-benzo[a]cyclohepten-1-yl]methanesulfonamide, Maleate] | 10 µM
O=C(O)/C=C\C(=O)O.O=S(=O)(CC(F)(F)F)Nc1cccc2c1CCCC2c1c[nH]cn1 (centres unmarked) [Example 20, N-[5,6,7,8-tetrahydro-5-(1H-imidazol-4-yl)-1-naphthalenyl]-2,2,2-trifluoroethanesulfonamide, Maleate] | 10 µM
N-[5,6,7,8-tetrahydro-5-(1H-imidazol-4-yl)-1-naphthalenyl]-2-methylethanesulfonamide, Maleate [Example 18] | 10 µM
CCn1cnc(C2CCCc3c2ccc(O)c3NS(C)(=O)=O)c1 (centres unmarked) [Example 6, N-[5-(1-ethyl-1H-imidazol-4-yl)-2-hydroxy-5,6,7,8-tetrahydro-1-naphthalenyl]methanesulfonamide, Hydrochloride] | 100 µM

Test system: not given
Experiment: not given
Conditions: not given

melting point | Compound
120 to 124 °C | CCC(O)(c1cccc(NS(=O)(=O)CC)c1)c1c[nH]cn1 (centres unmarked) [Example 55, N-[3-(1-hydroxy-1-(1H-imidazol-4-yl)propyl)phenyl]ethanesulfonamide]
202 to 204 °C | CCS(=O)(=O)Nc1cc(Br)cc(Cc2c[nH]cn2)c1C
118 to 123 °C | CS(=O)(=O)Nc1cccc2c1CCC[C@H]2c1c[nH]cn1 [Example 9, (+)-N-[(5R)-5-(1H-imidazol-4-yl)-5,6,7,8-tetrahydro-1-naphthalenyl]methanesulfonamide]
233 to 235 °C | Cc1nc(C2CCCc3c2ccc(O)c3NS(C)(=O)=O)c[nH]1.Cl (centres unmarked) [Example 3, N-[2-hydroxy-5-(2-methyl-1H-imidazol-4-yl)-5,6,7,8-tetrahydro-1-naphthalenyl]methanesulfonamide, hydrochloride]
185 to 186 °C | CCS(=O)(=O)Nc1cccc(Cc2c[nH]cn2)c1OC
260 °C | Cl.Cn1cncc1C1CCCc2c1ccc(O)c2NS(C)(=O)=O (centres unmarked) [Example 4, N-[2-hydroxy-5-(1-methyl-1H-imidazol-5-yl)-5,6,7,8-tetrahydro-1-naphthalenyl]methanesulfonamide, Hydrochloride]
167 to 169 °C | CCS(=O)(=O)Nc1cc(C)cc(Cc2c[nH]cn2)c1C
140 to 152 °C | CCS(=O)(=O)Nc1cc(Cc2c[nH]cn2)ccc1C
159 to 160 °C | CCS(=O)(=O)Nc1cc(Cc2c[nH]cn2)ccc1Cl
209 to 211 °C | COc1ccc2c(c1NS(C)(=O)=O)CCCC2c1c[nH]cn1.Cl (centres unmarked) [Example 1, N-[5-(1H-imidazol-4-yl)-2-methoxy-5,6,7,8-tetrahydro-1-naphthalenyl]methanesulfonamide hydrochloride]
182 to 184 °C | CCS(=O)(=O)Nc1cccc(Cc2c[nH]cn2)c1Cl
197 to 199 °C | Cc1cc(Cc2c[nH]cn2)c(C)c(NS(C)(=O)=O)c1
194 to 196 °C | CCS(=O)(=O)Nc1ccc(C)c(Cc2c[nH]cn2)c1
135 to 137 °C | CS(=O)(=O)Nc1c(O)ccc2c1CCCC2c1c[nH]cn1.Cl (centres unmarked) [Example 2, N-[2-hydroxy-5-(1H-imidazol-4-yl)-5,6,7,8-tetrahydro-1-naphthalenyl]methanesulfonamide, Hydrochloride]
182 to 184 °C | CCS(=O)(=O)Nc1cc(Cl)cc(Cc2c[nH]cn2)c1Cl
122 to 123 °C | CCS(=O)(=O)Nc1cc(Cc2c[nH]cn2)ccc1F
167 to 169 °C | CS(=O)(=O)Nc1cc(Cc2c[nH]cn2)ccc1O.Cl
195 to 196 °C | CC(c1cccc(NS(C)(=O)=O)c1)c1c[nH]cn1.Cl (centres unmarked)
194 to 196 °C | CCS(=O)(=O)Nc1cc(Br)cc(Cc2c[nH]cn2)c1
256 to 258 °C | Cl.Cn1cnc(C2CCCc3c2ccc(O)c3NS(C)(=O)=O)c1 (centres unmarked) [Example 5, N-[2-hydroxy-5-(1-methyl-1H-imidazol-4-yl)-5,6,7,8-tetrahydro-1-naphthalenyl]methanesulfonamide Hydrochloride]
173 to 176 °C | O=S(=O)(CC(F)(F)F)Nc1cccc2c1OCCC2c1c[nH]cn1 (single isomer, unassigned) (as salt: maleic acid salt) [Example 88, 2,2,2-trifluoro-N-[4-(1H-imidazol-4-yl)-3,4-dihydro-2H-chromen-8-yl]ethanesulfonamide]
196 to 199 °C | CCS(=O)(=O)Nc1c(C)ccc2c1CCCC2c1c[nH]cn1 (centres unmarked)

Compound | melting point
C=C(c1cccc(NS(C)(=O)=O)c1)c1c[nH]cn1 (as salt: maleic acid salt) [Example 92, N-{3-[1-(1H-imidazol-4-yl)vinyl]phenyl}methanesulfonamide] | 167 to 170 °C
CS(=O)(=O)Nc1cccc2c1CCCCC2c1c[nH]cn1.O=C(O)/C=C\C(=O)O (centres unmarked) [Example 38, N-[5-(1H-imidazol-4-yl)-6,7,8,9-tetrahydro-5H-benzo[a]cyclohepten-1-yl]methanesulfonamide, Maleate] | 162 to 164 °C
O=C(O)/C=C\C(=O)O.O=S(=O)(CC(F)(F)F)Nc1cccc2c1CCCC2c1c[nH]cn1 (centres unmarked) [Example 20, N-[5,6,7,8-tetrahydro-5-(1H-imidazol-4-yl)-1-naphthalenyl]-2,2,2-trifluoroethanesulfonamide, Maleate] | 138 to 140 °C
CCS(=O)(=O)Nc1cccc(Cc2c[nH]cn2)c1O.O=C(O)/C=C\C(=O)O | 155 to 157 °C
CS(=O)(=O)Nc1cccc2c1CCC=C2c1c[nH]cn1.O=C(O)/C=C\C(=O)O [Example 47, N-[5-(1H-imidazol-4-yl)-7,8-dihydro-1-naphthalenyl]methanesulfonamide, Maleate] | 161 to 165 °C
CS(=O)(=O)Nc1cccc2c1CCC2c1c[nH]cn1.O=C(O)/C=C\C(=O)O (centres unmarked) [Example 22, N-[1-(1H-imidazol-4-yl)-2,3-dihydro-1H-inden-4-yl]methanesulfonamide, Maleate] | 168 to 169 °C
CCS(=O)(=O)Nc1cccc2c1CCCC2c1c[nH]cn1.O=C(O)/C=C\C(=O)O (centres unmarked) [Example 12, N-[5-(1H-imidazol-4-yl)-5,6,7,8-tetrahydro-1-naphthalenyl]ethanesulfonamide Maleate] | 129 to 132 °C
CCS(=O)(=O)Nc1cccc(C(C)c2c[nH]cn2)c1.O=C(O)/C=C\C(=O)O (centres unmarked) | 114 to 119 °C
CCS(=O)(=O)Nc1cccc(/C(=C/OC)c2c[nH]cn2)c1.O=C(O)/C=C\C(=O)O [Example 46, N-{3-[(Z)-1-(1H-imidazol-4-yl)-2-methoxyethenyl]phenyl}ethanesulfonamide, Maleate] | 146 to 148 °C
O=C(O)/C=C\C(=O)O.O=S(=O)(CC(F)(F)F)Nc1cccc(Cc2c[nH]cn2)c1 | 161 to 162 °C
Cc1c(Cc2c[nH]cn2)cccc1NS(C)(=O)=O.O=C(O)/C=C\C(=O)O | 143 to 144 °C
CS(=O)(=O)Nc1cccc2c1OCCC2c1c[nH]cn1.O=C(O)/C=C\C(=O)O (centres unmarked) [Example 19, N-[4-(1H-imidazol-4-yl)-3,4-dihydro-2H-chromen-8-yl]methanesulfonamide, Maleate] | 172 to 174 °C
CC(c1cccc(NS(C)(=O)=O)c1)c1c[nH]cn1.O=C(O)/C=C\C(=O)O (centres unmarked) | 135 to 136 °C
CS(=O)(=O)Nc1ccc(F)c(Cc2c[nH]cn2)c1.O=C(O)/C=C\C(=O)O | 146 to 147 °C
